Laboratory results as given in PMC12048343, “Discovery of a small molecule secreted clusterin enhancer that improves memory in Alzheimer’s disease mice” (npj Drug Discovery, 2025).

Experiments:
sCLU in SH-SY5Y cells = test: sCLU levels in SH-SY5Y cells; assay type: cell-based, human; details: SH-SY5Y cells (Fig. S9A)
Experimental: Cell culture supernatant (2 μL) was added to a 384-well proxy plate preloaded with AlphaLISA HiBlock buffer (2 µL, 1X, CAT#AL004C, Perkin Elmer). Then an anti-sCLU antibody mixture (2 µL, mAb J84, biotinylated (10 nM, Cat# 3717-6-1000, Mabtech) and mAb CLU aa 22-227 (Cat#AF7084, R&D Systems), Acceptor bead conjugated (50 µg/mL, Cat#6772001, Perkin Elmer)) was added and incubated at room temperature for 1 hour. AlphaScreen Streptavidin Donor beads (2 µL, Cat#6760002S, Perkin Elmer) were added, incubated for an additional 30 min in the dark, and the plate was read in an Envision plate reader.

HEK 293 T cells = test: Cytotoxicity, MultiTox-Fluor (nephrotoxicity); assay type: cell-based; details: up to 50 µM
From the text: Cell viability and toxicity were simultaneously assessed using the MultiTox-Fluor Multiplex Cytotoxicity Assay (Cat# PRG9200, Fisher Scientific) according to the manufacturer’s protocol.

[1] = system: 3xTg-AD murine model of AD; test: Chronic 6-week oral study in 3xTg-AD mice (hippocampus biomarkers, proteomics); assay type: in vivo, mouse; details: oral 15 mg/kg BID, 6 weeks, vs vehicle
Experimental: Brain tissue was homogenized and diluted to a protein concentration of 50 ng/mL. The Mouse Clusterin ELISA Kit (Cat#ab199079, Abcam) was performed according to the manufacturer’s protocol.
Hippocampal tissue was sonicated in TPER buffer containing 1x protease and phosphatase inhibitors (Fisher catalog # 78429) on ice. Samples were centrifuged at 16000xg for 10 min at 4 degrees C. A BCA protein quantification assay was performed on each sample in duplicate. Aliquots of 40 uL were stored in the -80 freezer.
A sample of brain homogenate (8.8 mg/mL) was tested at 10 dilutions using the Tau AlphaLISA (Revvity Cat#AL271C) (32, 64, 128, 256, 512, 1024, 2048, 4096, 8192, 16384-fold) and, separately, the anti-tau phosphor AT8 and S396 (Fisher catalogs MN1020B and 44-752 G, respectively) antibodies (2, 4, 8, 16, 32, 64, 128, 256, 512, 1024-fold). AlphaLISA assays were by loading 2 µL of the anti-tau acceptor bead mixed with anti-tau or anti-ptau biotinylate antibodies in the 384-well plate, then 2 uL sample was loaded and incubated for 1 h at room temperature. AlphaScreen Streptavidin Donor beads (2 µL, Cat#6760002S, Perkin Elmer) were added, incubated for an additional 30 minutes in the dark, and the plate was read in an Envision plate reader.
Additional assays: The Aβ1-42 ELISA assay was performed on hippocampus brain homogenate according to the manufacturer’s protocol (Fisher KHB3441). Humanin in cell culture lysate was quantify by ELISA assay, according to the manufacturer’s protocol (MyBioSourc Cat# MBS7607247). SirT1 in cell culture lysate was quantify using AlphaLISA. Cell lysate (2 μL) was added to a 384-well proxy plate preloaded with 2 µL anti-SiRT1 antibody mixture (ABCAM catalog AB110304, biotinylated (10 nM) and ABCAM catalog AB104833, acceptor bead conjugated (50 µg/mL, Cat#6772001, Perkin Elmer)) was added and incubated at room temperature for 1 hour. AlphaScreen Streptavidin Donor beads (2 µL, Cat#6760002S, Perkin Elmer) were added, incubated for an additional 30 min in the dark, and the plate was read in an Envision plate reader.
All procedures were performed in accordance with protocols approved by the UCLA Institutional Animal Care and Use Committee (IACUC) and guidelines of the NIH. Mouse strains used were C57BL/6 J (Black 6, Jackson Laboratory; JAX stock #000564). All non-AD mice were 4 to 5 mo old at the time of the experiments. […]

[2] = system: human iPSC-derived neurons; test: Neurite outgrowth assay in iPSC-derived human neurons; assay type: cell-based; details: 48 h
Experimental: The iPSC derived human neurons were provided by the Kornblum lab to be cultured in normal growth conditions (37 °C, 5% CO2) for 2–3 days. Cells were cultured in CELLSTAR uClear 384 well plates, PS, F bottom at seeding density of 5000 cells per well coated overnight with 30 ug/mL poly-D-lysine and 2 ug/mL laminin. Media was replaced every 3 days with Lonza Primary Neuron Basal Medium (PNBM) supplemented with 2 mM L-glutamine, GA-1000, and 2% NSF-1. On day 3, cells were treated with DDL357 in doses ranging from 15,000 nM to 0.76 nM for 48 h. All compounds were diluted in 0.5% DMSO and pinned to 384 well plates with 25 µL of cell media per well with pin size of 250 nL using BioMek FX (Beckman Coulter, CA). After 48 h, media was replaced twice to ensure removal of any remaining compound residues before imaging for neurite outgrowth with Calcein-AM and Hoescht. Imaging was done at UCLA Molecular Screening Shared Resource core facility (MSSR; Robert Damoiseaux, Ph.D., Director) with ImageXPress Confocal (Molecular Devices, CA) using a 10x objective. Total neurite outgrowth was measured via a MetaXpress (Molecular Devices, CA) neurite outgrowth analysis algorithm. […] Mean neurite outgrowth per drug exposure was determined by normalizing to vehicle control (n = 60). […]

## Cc1sc2c(c1C)C(c1ccc(Cl)cc1)=N[C@@H](CC(=O)OC1CC1)c1nnc(C)n1-2 [DDL-357]
sCLU in SH-SY5Y cells
  sCLU levels: increasing sCLU
HEK 293 T cells
  Ctox: ≥ 50 µM
[1]; hippocampus
  reduction of tau phosphorylation at Ser396 (p-tau/total tau): significant
  tau phosphorylation at Ser202/Thr205 (p-tau/total tau): lower, but not significantly so
[1]
  Aβ1-42 levels in brain: the differences were not significant
  sCLU levels in brain: the differences were not significant
[2]
  concentrations associated with significantly increased neurite outgrowth: 0.8 to 61.7 nM
